Assay results published in ChEMBL document CHEMBL5370675, “Identification of HuR-RNA Interfering Compounds by Dynamic Combinatorial Chemistry and Fluorescence Polarization” (ACS Med Chem Lett, 2023).
Active and inactive are the calls of the source. The rule behind the calls is not given here.

Key:
[1] = molecular target: ELAV-like protein 1 (Homo sapiens) (UniProt Q15717); assay: Inhibition of HuR (unknown origin) assessed as reduction in protein-mRNA interaction at 0.5 to 100 uM preincubated for 1 hr followed by mRNA addition and measured after 1.5 hrs by fluorescence polarization assay; settings: dose 0.5-100 µM, time 2.5 hrs
[2] = Retention time of the compound in acetate buffer by HPLC-UV analysis; format: physicochemical

ELAV-like protein 1 (Homo sapiens), sequence (Q15717 whole entry): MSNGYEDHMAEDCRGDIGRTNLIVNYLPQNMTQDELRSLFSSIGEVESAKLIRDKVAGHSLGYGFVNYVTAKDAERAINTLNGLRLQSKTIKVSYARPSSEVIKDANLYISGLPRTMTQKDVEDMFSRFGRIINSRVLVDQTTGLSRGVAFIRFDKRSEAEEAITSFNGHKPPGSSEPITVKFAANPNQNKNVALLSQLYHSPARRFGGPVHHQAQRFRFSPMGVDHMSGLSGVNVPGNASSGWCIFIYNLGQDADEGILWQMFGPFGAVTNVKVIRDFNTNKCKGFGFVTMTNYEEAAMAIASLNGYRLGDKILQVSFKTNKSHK

| Structure (SMILES) | inhibition [1] | Retention_time [2] |
| --- | --- | --- |
| Cc1cccc(Cn2nc(C(C)(C)C)cc2C(=O)N/N=C/c2ccc3cn[nH]c3c2)c1 | Active |  |
| Cc1cccc(Cn2nc(C(C)(C)C)cc2C(=O)N/N=C/c2csc(Br)n2)c1 | Active |  |
| O=C(COc1ccc(Cl)cc1Cl)N/N=C/c1csc(Br)n1 | Active | 12.86 min |
